According to PMC12446476 (Nature Communications, 2025):
In brackets after ≈: the same amount, converted by molar mass. Like-named read-outs stand apart in the source and are kept apart here.

System: N. gonorrhoeae
Assay: MIC determination, Etest
Format: cell-based, Neisseria gonorrhoeae
Conditions: for MIC: Neisseria gonorrhoeae
Source text: The 2024 WHO N. gonorrhoeae reference strains were used for quality control. Only whole MIC doubling dilutions are reported. Clinical breakpoints or the epidemiological cutoff (ECOFF, to indicate azithromycin resistance) from EUCAST (v14.0, https://www.eucast.org/clinical_breakpoints) were used to classify isolates as antimicrobial susceptible or resistant. […] Two times the standard inoculum defined by CLSI was used to establish consistent growth in untreated control samples for some strains. In vitro time-kill assays were performed according to CLSI guidelines[65] using Columbia Broth (BD Difco) supplemented with 1% IsoVitaleX Enrichment (BD). Viable bacterial counts were generated by plating 10-fold serially diluted samples on GC agar plates containing 1% IsoVitaleX Enrichment (BD).

MIC (WHO F, Etest, read-out: MIC): 16 µg/mL (≈ 48.1 µM) | MIC (WHO H, Etest, read-out: MIC): 8 µg/mL (≈ 24.1 µM) | MIC (WHO K, Etest, read-out: MIC): 16 µg/mL (≈ 48.1 µM) | MIC (WHO L, Etest, read-out: MIC): 16 µg/mL (≈ 48.1 µM) | MIC (WHO M, Etest, read-out: MIC): 16 µg/mL (≈ 48.1 µM) | MIC (WHO O, Etest, read-out: MIC): > 1020 µg/mL | MIC (WHO P, Etest, read-out: MIC): 8 µg/mL (≈ 24.1 µM) | MIC (WHO Q, Etest, read-out: MIC): 8 µg/mL (≈ 24.1 µM) | MIC (WHO R, Etest, read-out: MIC): 8 µg/mL (≈ 24.1 µM) | MIC (WHO S2, Etest, read-out: MIC): 16 µg/mL (≈ 48.1 µM) | MIC (WHO U, Etest, read-out: MIC): 8 µg/mL (≈ 24.1 µM) | MIC (WHO V, Etest, read-out: MIC): 16 µg/mL (≈ 48.1 µM) | MIC (WHO X, Etest, read-out: MIC): 16 µg/mL (≈ 48.1 µM) | MIC (WHO Y, Etest, read-out: MIC): 16 µg/mL (≈ 48.1 µM) | MIC (WHO Z, Etest, read-out: MIC): 16 µg/mL (≈ 48.1 µM) | MIC (comparator antibiotics, clinical N. gonorrhoeae isolate 1, Sweden 2023, read-out: Minimum inhibitory concentration): 16 µg/mL (≈ 48.1 µM) | MIC (comparator antibiotics, clinical N. gonorrhoeae isolate 2, Sweden 2023, read-out: Minimum inhibitory concentration): 8 µg/mL (≈ 24.1 µM) | MIC (comparator antibiotics, clinical N. gonorrhoeae isolate 3, Sweden 2023, read-out: Minimum inhibitory concentration): 16 µg/mL (≈ 48.1 µM) | MIC (comparator antibiotics, clinical N. gonorrhoeae isolate 4, Sweden 2023, read-out: Minimum inhibitory concentration): 16 µg/mL (≈ 48.1 µM) | MIC (comparator antibiotics, clinical N. gonorrhoeae isolate 5, Sweden 2023, read-out: Minimum inhibitory concentration): 8 µg/mL (≈ 24.1 µM) | MIC (comparator antibiotics, clinical N. gonorrhoeae isolate 6, Sweden 2023, read-out: Minimum inhibitory concentration): 8 µg/mL (≈ 24.1 µM) | MIC (comparator antibiotics, clinical N. gonorrhoeae isolate 7, Sweden 2023, read-out: Minimum inhibitory concentration): 16 µg/mL (≈ 48.1 µM) | MIC (comparator antibiotics, clinical N. gonorrhoeae isolate 8, Sweden 2023, read-out: Minimum inhibitory concentration): 16 µg/mL (≈ 48.1 µM) | MIC (comparator antibiotics, clinical N. gonorrhoeae isolate 9, Sweden 2023, read-out: Minimum inhibitory concentration): 8 µg/mL (≈ 24.1 µM) | MIC (comparator antibiotics, clinical N. gonorrhoeae isolate 10, Sweden 2023, read-out: Minimum inhibitory concentration): 16 µg/mL (≈ 48.1 µM) | MIC (comparator antibiotics, clinical N. gonorrhoeae isolate 11, Sweden 2023, read-out: Minimum inhibitory concentration): 16 µg/mL (≈ 48.1 µM) | MIC (comparator antibiotics, clinical N. gonorrhoeae isolate 12, Sweden 2023, read-out: Minimum inhibitory concentration): 16 µg/mL (≈ 48.1 µM) | MIC (comparator antibiotics, clinical N. gonorrhoeae isolate 13, Sweden 2023, read-out: Minimum inhibitory concentration): 16 µg/mL (≈ 48.1 µM) | MIC (comparator antibiotics, clinical N. gonorrhoeae isolate 14, Sweden 2023, read-out: Minimum inhibitory concentration): 16 µg/mL (≈ 48.1 µM) | MIC (comparator antibiotics, clinical N. gonorrhoeae isolate 15, Sweden 2023, read-out: Minimum inhibitory concentration): 16 µg/mL (≈ 48.1 µM) | MIC (comparator antibiotics, clinical N. gonorrhoeae isolate 16, Sweden 2023, read-out: Minimum inhibitory concentration): 8 µg/mL (≈ 24.1 µM) | MIC (comparator antibiotics, clinical N. gonorrhoeae isolate 17, Sweden 2023, read-out: Minimum inhibitory concentration): 8 µg/mL (≈ 24.1 µM) | MIC (comparator antibiotics, clinical N. gonorrhoeae isolate 18, Sweden 2023, read-out: Minimum inhibitory concentration): 16 µg/mL (≈ 48.1 µM) | MIC (comparator antibiotics, clinical N. gonorrhoeae isolate 19, Sweden 2023, read-out: Minimum inhibitory concentration): 16 µg/mL (≈ 48.1 µM) | MIC (comparator antibiotics, clinical N. gonorrhoeae isolate 20, Sweden 2023, read-out: Minimum inhibitory concentration): 16 µg/mL (≈ 48.1 µM) | MIC (comparator antibiotics, clinical N. gonorrhoeae isolate 21, Sweden 2023, read-out: Minimum inhibitory concentration): 16 µg/mL (≈ 48.1 µM) | MIC (comparator antibiotics, clinical N. gonorrhoeae isolate 22, Sweden 2023, read-out: Minimum inhibitory concentration): 8 µg/mL (≈ 24.1 µM) | MIC (comparator antibiotics, clinical N. gonorrhoeae isolate 23, Sweden 2023, read-out: Minimum inhibitory concentration): 8 µg/mL (≈ 24.1 µM) | MIC (comparator antibiotics, clinical N. gonorrhoeae isolate 24, Sweden 2023, read-out: Minimum inhibitory concentration): 16 µg/mL (≈ 48.1 µM) | MIC (comparator antibiotics, clinical N. gonorrhoeae isolate 25, Sweden 2023, read-out: Minimum inhibitory concentration): 8 µg/mL (≈ 24.1 µM) | MIC (comparator antibiotics, clinical N. gonorrhoeae isolate 26, Sweden 2023, read-out: Minimum inhibitory concentration): 16 µg/mL (≈ 48.1 µM) | MIC (comparator antibiotics, clinical N. gonorrhoeae isolate 27, Sweden 2023, read-out: Minimum inhibitory concentration): 8 µg/mL (≈ 24.1 µM) | MIC (comparator antibiotics, clinical N. gonorrhoeae isolate 28, Sweden 2023, read-out: Minimum inhibitory concentration): 8 µg/mL (≈ 24.1 µM) | MIC (comparator antibiotics, clinical N. gonorrhoeae isolate 29, Sweden 2023, read-out: Minimum inhibitory concentration): 16 µg/mL (≈ 48.1 µM) | MIC (comparator antibiotics, clinical N. gonorrhoeae isolate 30, Sweden 2023, read-out: Minimum inhibitory concentration): 8 µg/mL (≈ 24.1 µM) | MIC (comparator antibiotics, clinical N. gonorrhoeae isolate 31, Sweden 2023, read-out: Minimum inhibitory concentration): 8 µg/mL (≈ 24.1 µM) | MIC (comparator antibiotics, clinical N. gonorrhoeae isolate 32, Sweden 2023, read-out: Minimum inhibitory concentration): 8 µg/mL (≈ 24.1 µM) | MIC (comparator antibiotics, clinical N. gonorrhoeae isolate 33, Sweden 2023, read-out: Minimum inhibitory concentration): 8 µg/mL (≈ 24.1 µM) | MIC (comparator antibiotics, clinical N. gonorrhoeae isolate 34, Sweden 2023, read-out: Minimum inhibitory concentration): 8 µg/mL (≈ 24.1 µM) | MIC (comparator antibiotics, clinical N. gonorrhoeae isolate 35, Sweden 2023, read-out: Minimum inhibitory concentration): 16 µg/mL (≈ 48.1 µM) | MIC (comparator antibiotics, clinical N. gonorrhoeae isolate 36, Sweden 2023, read-out: Minimum inhibitory concentration): 8 µg/mL (≈ 24.1 µM) | MIC (comparator antibiotics, clinical N. gonorrhoeae isolate 37, Sweden 2023, read-out: Minimum inhibitory concentration): 8 µg/mL (≈ 24.1 µM) | MIC (comparator antibiotics, clinical N. gonorrhoeae isolate 38, Sweden 2023, read-out: Minimum inhibitory concentration): 8 µg/mL (≈ 24.1 µM) | MIC (comparator antibiotics, clinical N. gonorrhoeae isolate 39, Sweden 2023, read-out: Minimum inhibitory concentration): 16 µg/mL (≈ 48.1 µM) | MIC (comparator antibiotics, clinical N. gonorrhoeae isolate 40, Sweden 2023, read-out: Minimum inhibitory concentration): 8 µg/mL (≈ 24.1 µM) | MIC (comparator antibiotics, clinical N. gonorrhoeae isolate 41, Sweden 2023, read-out: Minimum inhibitory concentration): 16 µg/mL (≈ 48.1 µM) | MIC (comparator antibiotics, clinical N. gonorrhoeae isolate 42, Sweden 2023, read-out: Minimum inhibitory concentration): 8 µg/mL (≈ 24.1 µM) | MIC (comparator antibiotics, clinical N. gonorrhoeae isolate 43, Sweden 2023, read-out: Minimum inhibitory concentration): 16 µg/mL (≈ 48.1 µM) | MIC (comparator antibiotics, clinical N. gonorrhoeae isolate 44, Sweden 2023, read-out: Minimum inhibitory concentration): 16 µg/mL (≈ 48.1 µM) | MIC (comparator antibiotics, clinical N. gonorrhoeae isolate 45, Sweden 2023, read-out: Minimum inhibitory concentration): 16 µg/mL (≈ 48.1 µM) | MIC (comparator antibiotics, clinical N. gonorrhoeae isolate 46, Sweden 2023, read-out: Minimum inhibitory concentration): 8 µg/mL (≈ 24.1 µM) | MIC (comparator antibiotics, clinical N. gonorrhoeae isolate 47, Sweden 2023, read-out: Minimum inhibitory concentration): 16 µg/mL (≈ 48.1 µM) | MIC (comparator antibiotics, clinical N. gonorrhoeae isolate 48, Sweden 2023, read-out: Minimum inhibitory concentration): 8 µg/mL (≈ 24.1 µM) | MIC (comparator antibiotics, clinical N. gonorrhoeae isolate 49, Sweden 2023, read-out: Minimum inhibitory concentration): 16 µg/mL (≈ 48.1 µM)
Compound: CN[C@@H]1[C@H](O)[C@H](NC)[C@H]2O[C@@]3(O)C(=O)C[C@@H](C)O[C@H]3O[C@@H]2[C@H]1O [Spectinomycin]
susceptibility of all isolates (100 contemporary clinical N. gonorrhoeae isolates, EUCAST): susceptible
